In article PMC5295233, “Biochemical and Structural Insights into a Novel Thermostable β-1,3-Galactosidase from Marinomonas sp. BSi20414” (Marine Drugs, 2017):

System: T1, MaBGA (β-galactosidase from Marinomonas sp. BSi20414)
T1 construct: native enzyme purified from the wild-type strain (ammonium sulfate, HiTrap DEAE FF); GH42; catalytic Glu142 and Glu314; no tag
Experiment: release of o-nitrophenol at […] nm, nonlinear Michaelis-Menten fit
Assay type: biochemical
Conditions: apparent Km; 50 mM PBS pH 7.0 (standard assay); ONPG 0.1-19 mM; temperature not given

O=[N+]([O-])c1ccccc1O[C@@H]1O[C@H](CO)[C@H](O)[C@H](O)[C@H]1O [ONPG, o-nitrophenyl-β-D-galactopyranoside]
Km: 14.2 mM
